# Test results taken from US10575515B2, “Methods and compositions for preserving tissues and organs” (The General Hospital Corporation, priority 2010, dated 2020).
# Experiments:
# hepatocytes [1] = test: SZNF storage of cells at −4° C. with metabolic supplement, cell viability; format: cell-based; conditions: tandem SZNF with metabolic suppressant
# Procedure: Inventors are testing a variety of metabolic supplements to enhance viability during preservation. One of the most successful additives inventors tested is magnolol, a biphenolic compound with multiple properties (including tumor suppression and antioxidative capabilities). […] Note that this study was performed early on where stable preservation temperature in plate culture models was −4° C., testing at −10° C. is currently in progress.
# The cells were preserved on collagen coated 6 well plates and cultured at 37° C. for one day prior to preservation. Cells were then preserved 48 hours at −4° C.; viability was determined 1 hr after rewarming
# hepatocytes [2] = test: Hepatocyte viability after 60 min incubation with isotonic mixtures of sugars and DMSO; format: cell-based
# Procedure: Significant loading of 3OMG can be achieved within 20 minutes (FIG. 37a). The hepatocyte viability when incubated with 3OMG is statistically equal to other saccharides that are not cryopreservative for mammalian cells (FIG. 37b). By comparison, incubation with a common cryopreservative dimethyl sulfoxide (DMSO) under similar conditions reduces viability to 12%.
# Hepatocytes can be loaded with 3OMG within 20 minutes in vitro. FIG. 37A illustrates that the kinetics of 3OMG uptake show significant loading of cells with 3OMG within 20 minutes, and even more rapid release with washing; inventors can currently perfuse the livers in stable condition for more than 6 hrs, which is more than sufficient for loading with 3OMG.
# hepatocytes [3] = test: Cryopreservation of 3OMG-loaded hepatocytes, post-thaw viability by trypan blue exclusion; format: cell-based; conditions: Hepatocyte; 200 mM 3OMG, storage in liquid nitrogen up to one week; read-out: post-thaw cell viability (percentage of unfrozen control)
# Procedure: Hepatocytes were incubated with 200 mM 3OMG for 60 min and then washed with sugar-free medium for 30 min. Controls were incubated in glucose-free DMEM (no-sugar control), sucrose (non-permeable/non-intracellular control), and D-glucose (permeable but metabolizable control). Following incubation, cells were pelleted by centrifugation for 5 min, supernatant decanted, and resuspended in cold HypoThermosol solution (HTS) with 200 mM 3OMG, 2DG, sucrose, or D-glucose (1×10^6 cell/mL). Cell suspensions were transferred to 1 mL cryogenic vials and cooled at −1° C./min to −6° C., seeded to induce the formation of extracellular ice by application of cold forceps to the exterior of the cryovials, and then cooled at −1° C./min to −80° C., and finally transferred to liquid nitrogen (−196° C.) for storage lasting 1 to 7 days. Following storage, samples were rapidly thawed in a 37° C. water bath for 2 min with gentle agitation. The samples were then diluted 1:10 in D-glucose-free DMEM and incubated for 10 min at 37° C. to wash out the loaded sugar compounds. Samples were then centrifuged, supernatant decanted, and resuspended in culture medium. The viability of the cryopreserved cells was determined immediately after thawing using a trypan blue exclusion assay and expressed as percent of unfrozen control. […]
# hepatocytes [4] = test: Long-term hepatic functions of cryopreserved hepatocytes in collagen sandwich culture; format: cell-based; conditions: albumin, urea, cytochrome P450; 3OMG loaded and frozen
# Procedure: Methods: Cells were cultured in a collagen sandwich for […], and media collected daily were analyzed for albumin and urea. All values were normalized by viable cell number (DNA content) and shown as o the means±se (n>9). Urea secretion and resorufin formation were statistically not different (p=0.51 and p=0.3 respectively). Albumin production on days 7-13 were statistically different at p=0.014 (FIG. 39).
# rat livers = test: Subzero nonfreezing storage of whole rat livers at −5° C., histology (H&E); conditions: loaded with 3OMG, 24 hours at −5° C., then NELP with red blood cells
# [5] = Supercooling in cryovials at subzero temperatures in selected media formulations; format: physicochemical
# Procedure: We tested a variety of preservation media and additives for achieving SZNF storage overnight in a controlled rate freezer. We were able to reach −10° C. without any freezing in supplemented University of Wisconsin (UW) and Hypothermosol (HTS) by proper tuning of the rate of temperature reduction. […] FIG. 48 depicts the temperature profile for successful subzero cooling at −10° C.
# [6] = test system: C3A cells (human liver carcinoma line); test: Cryopreservation of C3A cells with troglitazone, post-thaw viability by trypan blue exclusion; format: cell-based; conditions: 25 μM troglitazone 30 mins, cryopreservation in liquid nitrogen, vs without
# From the text: Inventors performed a molecular docking study to identify ligands of PPAR-γ, a transcription factor that is known to have the ability to modulate metabolic rate (see FIG. 34), where inventors identified Troglitazone as a candidate. Inventors also performed preliminary studies to test the effect of supplementation in preservation efficacy. In these initial studies inventors used C3A cells (human liver carcinoma line) and cryopreservation rather than supercooling, due to availability of data to be used as controls. Inventors observed that Troglitazone increased post-thaw viability ˜2.5 fold. We are currently testing Troglitazone and other compounds with primary rat hepatocytes both in cryopreservation and supercooled storage. Nearly confluent C3A cell flasks were trypsinized in PBS solution; cells were sedimented by centrifugation (10 min at […] at 4 degree C.). The medium was replaced by adding 2 mL of HTS and the cell pallets were re-suspended in the HTS by gentle pipetting. The cell samples in 1 mL aliquots were put in 1.5 mL cryovials. The samples were frozen in a controlled rate freezer using a freeze controlled Cryobath (Cryologic, Victoria, Australia) with a CL-8800 temperature controller (Cryologic). A cooling rate of 1 degree C./min was used. The samples were seeded with ice at −4 degrees C. by using a cotton bulb dipped in liquid nitrogen. […]
compound,measurement,setting,value
"C=CCc1ccc(O)c(-c2cc(CC=C)ccc2O)c1 [magnolol, 5,5′-Diallyl-2,2′-biphenyldiol]",preservation of viability of cells compared to SZNF in the absence of metabolic suppressant agent,hepatocytes [1],at least 60%
"C[S+](C)[O-] [dimethyl sulfoxide (DMSO), dimethyl sulfoxide, reference compound]",hepatocyte viability after incubation,"hepatocytes [2]; incubation 60 min, isotonic mixture",12%
"CO[C@@H]([C@H](O)[C@H](O)CO)[C@@H](O)C=O [3OMG, 3-O-methyl-glucose]",toxicity for hepatocytes,"hepatocytes [2]; concentration range studied, 60 min incubation",minimally toxic
same,viability at 200000 µM,hepatocytes [3],> 50%
same,long-term hepatic functions vs non-frozen hepatocytes,hepatocytes [4],similar
same,histology after storage and NELP perfusion,rat livers,perfect preservation of microstructure
same,temperature reached without any freezing,"[5]; overnight, controlled rate freezer",−15 °C
same,fraction of the time the protocol is stable,[5]; −15° C. in HTS,about 50%
Cc1c(C)c2c(c(C)c1O)CCC(C)(COc1ccc(CC3SC(=O)NC3=O)cc1)O2 (stereo not drawn) [Troglitazone],increase of post-thaw viability,[6],~2.5 fold
